Reference: patent publication US11633421B2, “Use of NAD precursors for improving maternal health and/or offspring health” (UNIVERSITY OF IOWA RESEARCH FOUNDATION, priority 2016, dated 2023)

Columns and labels:
[1] = Maternal weight gain, NR chloride in chow from 12 weeks before mating through weaning; format: in vivo; settings: female mice, NC+NR vs NC
Source text: Mice are a widely used model of human metabolism because they are capable of recapitulating many aspects of human health. […] Therefore, mice were used in a series of in vivo experiments to evaluate whether maternally supplemented NR has the ability to improve maternal and/or neonatal health and development. Specifically, it was asked whether addition of NR chloride (3 g/kg of chow) to the diet of female mice would alter their health during and after pregnancy and whether this administration would produce any beneficial effects on the pups.
(§1) Female C57BL/6N mice were raised in 12 hour light:dark cycles on Teklad 2920X chow (NC). For 12 weeks prior to mating with a single C57BL/6N male, females were on either NC (n=4) or NC+NR (n=4). Females were maintained on the same diet through gestation and weaning, which was at 21 days after birth.

[2] = Milk production, oxytocin-induced milk collection (Example 1); format: in vivo, mice; settings: collected volume per mother after oxytocin, days 0, 7, 14 and 21 after partum; NC+NR vs NC
Procedure: as §1
To determine the production of milk, we separated mothers were separated from pups for several hours and provided an injection of oxytocin on days 0, 7, 14 and 21 after partum. Milk was carefully collected by pipetting and the collected volume per mother was plotted. The galactogogue activity of NR was striking and entirely unexpected.

[3] = Post-partum NR supplementation: milk volume and macronutrient density; format: in vivo, mice
Procedure: FIGS. 8A-C. Milk from NR-supplemented mothers had normal macronutrient density. Oxytocin-induced milk collection at indicated days. Protein (FIG. 8A), carbohydrate (FIG. 8B) and lipid concentration (FIG. 8C) was not changed. A series of in vivo murine experiments were performed to evaluate the effects of nicotinamide riboside on milk production. […] As shown in FIGS. 8A-C, the concentration of protein, carbohydrate and fat in the milk of NR-supplemented mothers was normal. Because there is approximately 2-fold more milk produced by NR-supplemented mothers, NR-supplemented mothers transmit more calories to their offspring, which thereby assists maternal weight loss and neonatal development. In FIG. 9A, the concentration of NAD precursor vitamins in the milk from control mothers and NR-supplemented mothers was determined. […] Oral NR was labeled with heavy atoms in the nicotinamide and ribose moieties of NR and this was provided to lactating mothers by gavage.

[4] = Offspring fasting glucose (Example 1); format: in vivo, mice
Procedure: as §1, with “birth. […] The mild hypoglycemia of mice on standard chow was not expected and the improvement in glycemic control by virtue of supplementing mothers was unexpected.” for “birth.”

[5] = system: NAD biosynthetic genes in the mammary glands; test: Mammary NAD biosynthetic gene expression and NAD metabolites; format: in vivo, mice
Source text: FIGS. 12A-D. Lactation and NR boost the mammary NAD program. FIG. 12A. NR promotes expression of NAD biosynthetic genes in the mammary glands. FIG. 12B. […] FIG. 12C. Lactation boosts NMN in mammary. FIG. 12D. Lactation and NR boost mammary NR in an additive manner. […] As shown in FIGS. 12B-12C, maternal NAD and NMN are elevated in the mammary of lactating mammary with respect to nonlactating mammary tissue.

[6] = system: NAD biosynthetic genes in the liver; test: Hepatic NAD biosynthetic gene expression and NAD metabolites; format: in vivo; settings: lactating mice with vs without NR
Source text: Lactation boosts NAD biosynthetic genes (FIG. 11A) and NAD levels (FIG. 11B) in the liver. […]. Lactation seems to depress levels of NR (FIG. 11C) and Nam (FIG. 11D) in the liver.

[7] = system: brain derived neurotrophic factor (BDNF); test: BDNF in milk; format: in vivo, mice; settings: NR-supplemented mothers
Procedure: FIG. 10. NR supplemented mothers produce milk with higher brain-derived neurotrophic factor. Milk from NC and NR mothers was tested. […] Based on the advanced brain and neurobehavioral development that was observed, it was investigated whether NR-supplemented mothers produced more BDNF in their milk.

[8] = Pup growth and weanling body composition (post-partum maternal NR); format: in vivo, mice
Procedure: FIG. 15. Maternal NR increases pup growth early in the neonatal period. Neonatal pups body weight from Day 0 to Day 14 (n=5 litter per group). FIGS. 16A-D. 21 day old pups of NR-supplemented mothers are bigger. Males and females were analyzed separately. The order of the bars from left to right are: males of normal chow (NC) mothers (white with light grey outline), followed by males of NR-supplemented mothers (filled light grey), followed by females of NC mothers (white with dark grey outline), followed by females of NR-supplemented mothers (filled dark grey). […] As shown in FIG. 16A-C, 21 day old weanlings of NR-supplemented mothers are larger in overall mass, fat mass and lean mass.

[9] = Brain size and caudate putamen of offspring; format: in vivo, mice
Source text: FIGS. 24A-D. 69 days after their mother's intervention, the female offspring tend to have larger brains […] (FIG. 24A). Pups of NR-supplemented moms show advanced pruning of the caudate putamen at day 22 (FIGS. 24B-C); however, the caudate putamen in pups from NR-supplemented mothers grows to a normal size in adulthood (FIG. 24D). The order of the bars from left to right are: males of normal chow (NC) mothers (white with light grey outline), followed by males of NR-supplemented mothers (filled light grey), followed by females of NC mothers (white with dark grey outline), followed by females of NR-supplemented mothers (filled dark grey). At 91 days, the mice were sacrificed and examined with respect to their brains. In FIG. 24A, it was shown that female mice from NR-supplemented mothers have larger brains in adulthood. We hypothesized that the caudate putamen, which is the motor learning center of the brain, may have developed more rapidly in mice whose mothers had been NR-supplemented either due to the increased quality and/or quantity of milk they received and/or improved maternal care.

[10] = supplementing post-gestational mothers
[11] = 21 day old weanlings of NR-supplemented mothers

Compound: NC(=O)c1ccc[n+]([C@@H]2O[C@H](CO)[C@@H](O)[C@H]2O)c1 [NR, nicotinamide riboside]
- maternal body fat at the time of weaning [1]: tended to have lower body fat
- weight gain from the day of mating to the day of weaning ([1]; NR chloride 3 g/kg of chow): protected from this weight gain
- increase in milk production [2]: 2-3 x
- concentration of carbohydrate in the milk ([3]; NR-supplemented mothers): normal
- concentration of fat in the milk ([3]; NR-supplemented mothers): normal
- concentration of protein in the milk ([3]; NR-supplemented mothers): normal
- milk produced vs non-supplemented mothers [3, 10]: approximately 2 fold
- milk production [3, 10]: large increase
- glucose after an overnight fast, mice raised by NR-supplemented mothers [4]: better at maintaining glucose
- mammary NR ([5]; lactating female mouse, above level in lactating female): large increase
- mammary NAD+ levels ([5]; lactating mammary gland, NR supplementation): tends to further increase
- expression of NAD biosynthetic genes in lactating mammary ([5]; mother supplemented with NR): very high level of expression
- NAD biosynthetic genes and NAD levels in the liver [6]: does not superinduce
- hepatic NAD biosynthetic gene expression [6]: did not further increase
- levels of NR and Nam in the liver [6]: depresses the accumulation of these metabolites in the liver even more
- concentration of BDNF in the milk vs non-supplemented mothers [7]: 2 fold
- brain weight of weanlings ([8]; 21 day old females): tend to have larger brain weight
- fat mass of weanlings [8, 11]: larger
- lean mass of weanlings [8, 11]: larger
- overall mass of weanlings [8, 11]: larger
- neonatal size (pup body weight) ([8]; particularly at day 7 and 9): boosts neonatal size
- brain size in adulthood ([9]; 91 days, female mice from NR-supplemented mothers): larger
- caudate putamen in adults ([9]; adult offspring): not affected
- caudate putamen pruning (area of PSD95 staining) ([9]; female weanlings): clearly advanced pruning
- caudate putamen size in weanlings ([9]; weanlings at 21 days): slightly smaller
